Data from publication PMC11413853, “Discovery of VU6007496: Challenges in the Development of an M1 Positive Allosteric Modulator Backup Candidate” (ACS Chemical Neuroscience, 2024).
Read-outs that look alike come from different tables or passages of the source.

Experiments:
[1] = tested on: mice; test: Mouse phenotypic seizure liability assay (modified Racine score); type: in vivo; details: 100 mg/kg i.p., male C57Bl/6 mice, 3 h
Experimental: Brain plasma concentration ratio (Kp) was calculated by dividing brain concentration by plasma concentration for each animal. Unbound brain to unbound plasma concentration ratio (Kp,uu) is calculated using the following formula: Kp,uu = (Brain ng/g x brain fu)/(plasma ng/ml x plasma fu). […]
Behavioral Manifestations of Seizure Activity
To evaluate induction of behavioral manifestation of seizure activity, C57Bl/6 mice received administration of vehicle or 100 mg/kg M1 PAM. Compounds were formulated in 30% Captisol (11) or 10% Tween 80 (2-4 and 12) (pH 7.0) at a concentration of 10 mg/mL and injected i.p. (n = 3). Animals were monitored continuously and scored for behavioral manifestations of seizure activity at 5, 10, 15, and 30 min, and 1 and 3 h. Behavioral manifestations of seizures were scored using a modified Racine scoring system.2 Briefly, a score of 0 represents no behavior alterations; score 1, immobility, mouth and facial movements, or facial clonus; score 2, head nodding, tail extension; score 3, forelimb clonus, repetitive movements; score 4, rearing and tonic clonic seizure; and score 5, continuous rearing and falling, severe generalized tonic clonic seizure.

[2] = target: T1, human M1 (Homo sapiens, UniProt P11229); test: Calcium mobilization assay, human M1 (agonist and PAM modes); type: cell-based
T1 sequence (P11229 1-460): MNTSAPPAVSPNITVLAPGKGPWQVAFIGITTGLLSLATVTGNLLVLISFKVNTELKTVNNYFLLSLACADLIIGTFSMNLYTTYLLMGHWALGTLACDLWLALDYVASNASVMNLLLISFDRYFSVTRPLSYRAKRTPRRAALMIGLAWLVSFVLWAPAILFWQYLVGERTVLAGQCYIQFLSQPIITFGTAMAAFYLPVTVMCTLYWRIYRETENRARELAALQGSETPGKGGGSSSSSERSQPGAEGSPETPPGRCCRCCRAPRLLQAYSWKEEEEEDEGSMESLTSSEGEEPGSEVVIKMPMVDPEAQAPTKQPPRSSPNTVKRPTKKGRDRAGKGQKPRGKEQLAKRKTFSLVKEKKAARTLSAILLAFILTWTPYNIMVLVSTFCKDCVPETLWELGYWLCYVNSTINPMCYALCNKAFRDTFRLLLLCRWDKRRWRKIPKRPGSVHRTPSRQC

[3] = Rat plasma and brain exposure, 100 mg/kg i.p., 3 h; type: in vivo; details: brain and plasma, ip, 100 mg/kg i.p.
Description: Due to the prevalence of metabolite A (VU6036463, 24) in both in vitro preparations and in vivo, we first synthesized and characterized 24. Utilizing intermediate 19 (Scheme 3), a Suzuki coupling with benzyl chloride 28 afforded a mixture of N-Boc protected analog 29 and N-H analog 29a in moderate isolated yield. Hydrolysis of the nitriles to the carboxylic acid, followed by a HATU-mediated coupling with tetrahydro-2H-pyran-4-amine delivered 24 in 81% yield over the two steps.[21] In our kinetic assays, 24 was an “active” metabolite, with the profile of an M1 ago-PAM. […] To ascertain if 24 could be the source of the adverse cholinergic events in rats, we dosed 11 and 24, in parallel, at a dose of 100 mg/kg i.p. in 30% captisol and prepared plasma and brain samples at a 3-h time point to determine brain exposure of the M1 ago-PAM 24. In this study, 11 achieved a total plasma concentration of 3.6 μM and a total brain concentration of 0.93 μM (Kp = 0.26).

Cc1ccc(Cc2cc3c(=O)n([C@H]4CCCC[C@@H]4O)cnc3c3ccccc23)cn1 [compound 3, reference compound]
seizure liability / behavioral convulsions (modified Racine score) [1]: robust behavioral convulsions

Cn1ccc(-c2ccc(Cn3cc(C(=O)N[C@H]4CCOC[C@@H]4O)c4ncccc43)cc2)n1 [compound 4, reference compound]
seizure liability / behavioral convulsions (modified Racine score) [1]: robust behavioral convulsions

Cn1ccc(-c2ccc(Cc3cc(C(=O)N[C@H]4CCOC[C@@H]4O)nc4ccn(C)c34)cc2)n1 [compound 30]
hM1 PAM AChmax (%) ([2]; PAM mode, % ACh max): 71%
EC50 ([2]; PAM mode, read-out: hM1 PAM EC50): 4.9 nM
hM1 Agonist AChmax (%) ([2]; agonist mode, % ACh max): 60%
EC50 ([2]; agonist mode, read-out: hM1 Agonist EC50): 176 nM
Kp at 3 h [3]: 0.38
